In patent US20230098111A1, “COMPOSITIONS AND METHODS TO TREAT NEUROLOGICAL DISEASES” (University of Southern California, priority 2020, published 2023):
Entries after “also recorded” stand apart in the source; their conditions may differ.

What was measured:
C9ORF72 FTD iNs = assay: Survival of C9ORF72 FTD iNs; assay type: cell-based, human; conditions: Apilimod+GW4869 (exocytosis blocker)
From the text: (A) Survival of C9ORF72 iNs with DMSO or apilimod. Log-rank test, 100 iNs per group. […] Log-rank test, 100 iNs per group. […] Mean+/−s.e.m. Kruskal-Wallis Test.
(A, B) Survival of C9-FTD iNs treated with DMSO and Apilimod (A) or Apilimod+GW4869 (exocytosis blocker) (B). Log-rank test. 100 iNs per group. iNs quantified from 3 independent replicates per group.
Mutations in MAPT cause FTD with tau aggregates. To determine if iNs from FTD patients display neurodegenerative phenotypes, an established method to generate cortical neurons from iPSCs by forced expression of NGN2 was used. 3 FTD patient iPSC lines harboring a MAPTV337M mutation and their CRISPR-edited isogenic controls from a published cell bank were utilized. Neurons from MAPT-mutant iPSCs display increased phosphorylated and oligomeric tau, similar to post-mortem patient tissue (FIG. 18A). […] Thus, MAPT iNs display key features of FTD with tau pathology.
Thus, C9ORF72 iNs provide a robust model of FTD.
(§1) PIKFYVE inhibition rescues neurodegeneration through secretory autophagy.

C9-FTD iNs = assay: Exosome secretion from iNs; assay type: cell-based, human; conditions: apilimod+GW4869
From the text: (A) […] of exosomes from apilimod-treated C9-FTD iNs. (B) Western blot of TSG101, TDP-43, and Neurofilament heavy chain levels in the exosome fraction secreted from control or C9-FTD iNs upon apilimod treatment. (C,D) Quantification of the exosome marker TSG101 (C) or TDP-43 (D) in the exosome fraction of control and C9-FTD iNs treated with DMSO, apilimod, or apilimod+GW4869. Kruskal-Wallis test for B, C. N=3 biological replicates per condition, one line per genotype. (E) Number of poly(GR)-GFP+ exosomes secreted from iNs expressing exogenous poly(GR)-GFP upon DMSO or apilimod treatment. N=4 biological replicates. Exosomes were labeled with CFSE-red dye to enable detection by FACS. Unpaired t-test.
To test this, exosome release from iNs upon PIKFYVE inhibition was examined. […] Thus, PIKFYVE inhibition induces the secretion of TDP-43 and C9ORF72 DPRs from iNs
as §1

TARDBP mice = assay: Motor deficits in TDP-43 (TARDBP) mice; assay type: in vivo
From the text: (A) Gait impairment, (B) Kyphosis, and (C) Tremor scoring in wild-type (WT) and TDP-43 homozygous mice treated with a negative control (NC) ASO or Pikfyve ASO at P0. Fore each assay, a score of 0 indicates no phenotype and 4 indicates the most severe phenotype.
To determine if ASO-mediated PIKFYVE suppression can rescue neurodegeneration in mouse models of ALS, two mouse models—a C9ORF72 model based on adeno-associated virus (AAV)-mediated overexpression of poly(GR) and a TDP-43 mouse mode were established. Both models develop neurodegeneration, motor impairment, and paralysis. […]

C9-ALS/FTD iMNs = assay: Exosome secretion from iMNs; assay type: cell-based, human; conditions: apilimod+GW4869
From the text: (A) Western blot of TSG101, TDP-43, and Neurofilament heavy chain levels in the exosome fraction secreted from control or C9-ALS/FTD iMNs upon apilimod treatment. […] Kruskal-Wallis test for B, C. N=3 biological replicates per condition, one line per genotype. (D) Number of poly(GR)-GFP+ exosomes secreted from iMNs expressing exogenous poly(GR)-GFP upon DMSO or apilimod treatment. N=4 biological replicates. Exosomes were labeled with CFSE-red dye to enable detection by FACS. Unpaired t-test.
Blocking PIKFYVE activity induces secretory autophagy. […] Thus, secretory autophagy maintains proteostasis and prevents neuronal death in TDP-43 mouse models. PIKFYVE inhibition blocks autophagosome-lysosome fusion by […] their ratio in endosomal, lysosomal and autophagosomal membranes. One might expect this to be detrimental to ALS iMNs, which can degenerate due to misfolded protein accumulation. However, inhibition of autophagosome-lysosome fusion using PIKFYVE inhibition or bafilomycin can activate secretory autophagy to jettison misfolded proteins from cells. […] To test this hypothesis, exosomal release in human iMNs upon PIKFYVE inhibition was examined. […] Thus, PIKFYVE inhibition induces the secretion of TDP-43 and C9ORF72 DPRs from iMNs.
Determining if PIKFYVE suppression rescues neurodegeneration through secretory autophagy. […] ASOs were designed targeting […]. It was confirmed that the ASOs suppressed RAB27A expression in iMNs.

[1] = target: T1, Neutral Sphingomyelinase 2 (Mus musculus, UniProt Q9JJY3); conditions: mice overexpressing TDP-43; cited from earlier work
T1 construct: In mice overexpressing TDP-43, neurons secrete exosomes containing phospho-TDP-43; host or cells: neurons of TDP-43-overexpressing mice (endogenous enzyme, in vivo)
T1 sequence (Q9JJY3 1-655): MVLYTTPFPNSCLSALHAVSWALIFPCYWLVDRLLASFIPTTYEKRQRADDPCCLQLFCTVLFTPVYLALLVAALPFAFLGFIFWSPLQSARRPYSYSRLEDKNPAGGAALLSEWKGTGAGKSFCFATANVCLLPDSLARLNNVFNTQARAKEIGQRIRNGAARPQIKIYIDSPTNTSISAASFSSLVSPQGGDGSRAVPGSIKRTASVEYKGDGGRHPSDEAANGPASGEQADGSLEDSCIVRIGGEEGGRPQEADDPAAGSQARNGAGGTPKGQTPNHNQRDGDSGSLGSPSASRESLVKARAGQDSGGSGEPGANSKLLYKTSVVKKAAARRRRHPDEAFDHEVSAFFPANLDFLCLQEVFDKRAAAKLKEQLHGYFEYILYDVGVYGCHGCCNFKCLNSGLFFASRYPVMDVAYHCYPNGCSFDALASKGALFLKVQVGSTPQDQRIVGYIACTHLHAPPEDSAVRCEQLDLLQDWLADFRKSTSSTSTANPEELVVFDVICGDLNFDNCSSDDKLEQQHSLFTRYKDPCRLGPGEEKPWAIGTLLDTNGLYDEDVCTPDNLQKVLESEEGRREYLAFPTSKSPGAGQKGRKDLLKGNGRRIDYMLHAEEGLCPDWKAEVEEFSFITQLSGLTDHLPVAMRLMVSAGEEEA

sporadic ALS iMNs = assay: Survival of sporadic ALS iMNs
From the text: (A) Survival of control (CTRL) and C9ORF72 ALS/FTD patient (C9-ALS) iMNs with a 12-hour pulse treatment of excess glutamate shown for each individual line separately. iMNs quantified from 3 independent iMN conversions per line. (B-D) Immunofluorescence analysis of total TDP-43 (B) and quantification of the ratio of nuclear to cytoplasmic TDP-43 in control, C9-ALS (C), or sporadic ALS (D) iMNs. MNs from 2 controls and 2 C9-ALS patients (C) or 4 sporadic ALS patients (D) were quantified. n=30 (controls), 30 (C9-ALS/FTD), or 36 (sporadic) iMNs per line per condition from 2 biologically independent iMN conversions of 2 control, 2 C9-ALS/FTD, or 4 sporadic ALS lines were quantified. Each gray circle represents a single iMN. Median±interquartile range. Unpaired Mann-Whitney test. Scale bars: 5 μm. Dotted lines outline the nucleus and cell body. (E) Survival of control and sporadic iMNs with glutamate treatment. iMNs quantified from 3 independent iMN conversions per line. For iMN survival experiments, significance was measured by 2-sided log-rank test using the entire survival time course.
(B) Survival of C9-ALS/FTD iMNs with DMSO or apilimod. (C) Survival of sporadic ALS induced motor neurons (iMNs) with DMSO or apilimod. (D) Survival of C9-ALS/FTD iMNs with a scrambled ASO or PIKFYVE ASOs, 100 iMNs per group. […] Unpaired t-test. iMN survival experiments analyzed by log-rank test. […]

[2] = tested on: C9ORF72 dipeptide repeat proteins; assay: DPR levels in C9ORF72-BAC mice; assay type: in vivo; conditions: ASO injected into hippocampus, 7 days (12 days in FIG. 8-10)
Procedure: DRP aggregates (Poly(GR) red) accumulate in the cells (white outline) of C9-BAC mice.
(§2) (A) Mass spectrometry analysis of Optineurin (OPTN) levels in the cerebrospinal fluide (CSF) of mice 2 hours after direct intracerebroventral injection of a vehicle control or apilimod. n=3 mice per group. The ratio of Optineurin in the CSF of apilimod:vehicle-injected mice is shown. (B) Poly(GR)+ DPR punctae in wild-type or C9ORF72 mice treated with intracerebroventricular injection of apilimod for 48 hours. Mean+/−s.e.m. Data points are individual neurons taken across 3 mice per group. One-way ANOVA. […] Unpaired t-test. (D) Pikfyve qRT-PCR of whole brain. n=3 mice per group at postnatal day 7. Unpaired t-test. (E) Gait impairment scoring in wild-type (WT) and TDP-43 homozygous mice treated with a negative control (NC) ASO or Pikfyve ASO at postnatal day 1. Mean+/−s.e.m. Unpaired t-test at each time point between the negative control and Pikfyve ASO conditions for TDP-43 mice. A score of 0 indicates no phenotype and 4 indicates the most severe phenotype. (F) Vehicle or GW4869 were delivered by intraperitoneal injection every 48 h starting from day 6 in negative control and Pikfyve ASO-treated mice. Mean+/−s.e.m. One-way ANOVA at each time point between the four conditions. *p<0.05, **p<0.01, ***p<0.001, ****p<0.0001.
PIKFYVE inhibition rescues neurodegeneration in vivo. […] Since TARDBP overexpressing mice show motor deficits and neurodegeneration, we used TARDBP mice to test the efficacy of Pikfyve suppression.
(§3) Determining whether PIKfyve-targeting ASOs can reverse ALS disease progression in vivo. To determine if PIKfyve-targeting ASOs can reverse ALS disease processes in vivo, can PIKfyve ASOs lower levels of C9ORF72 dipeptide repeat proteins in mice. Dipeptide repeat proteins are generated from the C9ORF72 repeat expansion by repeat-associated non-AUG-dependent translation and are neurotoxic.
(§4) To determine if ASO-mediated Pikfyve suppression lowers C9ORF72 poly(GR) levels in mice, Pikfyve ASOs were injected into the hippocampus of adult C9ORF72-BAC mice, which harbor a C9ORF72 repeat expanded transgene and accumulate poly(GR)+ aggregates in hippocampal neurons.

Pikfyve [3] = assay: Pikfyve qRT-PCR of whole brain after intracerebroventricular ASO; assay type: in vivo, mice; conditions: intracerebroventricular ASO injection at P0/P1, brain at P7
Procedure: as §2
(A) Gait impairment, (B) Kyphosis, and (C) Tremor scoring in wild-type (WT) and TDP-43 homozygous mice treated with a negative control (NC) ASO or Pikfyve ASO at P0. […]

Pikfyve [4] = assay: Pikfyve expression in hippocampus after ASO injection; assay type: in vivo, mice; conditions: direct ASO injection into hippocampus, 7 days
From the text: as §3, §4

TDP-43 mutant mice = assay: TDP-43 pathology, neurodegeneration and survival in TDP-43 mice; assay type: in vivo
From the text: (A, B) Images (A) and quantification (B) of phosphorylated TDP-43 (pTDP43)+ punctae in spinal motor neurons of day 21 wild-type or TDP-43 mutant mice treated with a negative control (NC ASO) or Pikfyve ASO. Each data point represents one mouse, mean+/−s.e.m., one-way ANOVA. In (A), each arrow marks a pTDP-43+ puncta. […] (C, D) Images (C) and quantification (D) of nuclear and cytoplasmic TDP-43 intensity in spinal motor neurons of day 21 wild-type or TDP-43 mutant mice treated with a negative control (NC ASO) or Pikfyve ASO. Each data point represents one mouse, mean+/−s.e.m., one-way ANOVA. […] (E, F) Images (E) and quantification (F) of the average number of Neurotrace (Nissl)+ spinal motor neurons per ventral horn per mouse. Each data point represents one mouse, mean, one-way ANOVA. In (E), orange dotted lines outline the ventral horn area quantified and white dotted lines outline the spinal cord. (G) Survival of TDP-43 mutant mice treated with a negative control (NC ASO) or Pikfyve ASO. Log-rank test. *p<0.05, **p<0.01, ***p<0.001, ****p<0.0001.

For O=C(/C=C/c1ccc(/C=C/C(=O)Nc2ccc(C3=NCCN3)cc2)cc1)Nc1ccc(C2=NCCN2)cc1 [GW4869], the “apilimod rescue of C9ORF72 iN survival in presence of GW4869” value (C9ORF72 FTD iNs) was “blocked apilimod's ability to rescue”, the “apilimod-induced release of exosomes from C9ORF72 iNs with GW4869” value (C9-FTD iNs) was “impaired apilimod-induced release of exosomes” and the “motor rescue by PIKFYVE ASOs in presence of GW4869” value (TARDBP mice; GW4869 intraperitoneal every 48 h from day 6) was “blocked motor rescue by PIKFYVE ASOs”. The “apilimod-induced release of exosomes containing TSG101 and TDP-43 from ALS iMNs with GW4869” value (C9-ALS/FTD iMNs) was “blocked apilimod-induced release of exosomes”, the TDP-43 mouse survival [1] was “decreased TDP-43 mouse survival” and the neurodegeneration [1] was “accelerated neurodegeneration”. For the same compound, the “neuronal cytoplasmic TDP-43 aggregates” value [1] was “increased neuronal accumulation of cytoplasmic TDP-43 aggregates”.

In the case of Nc1ccc(C(=O)Nc2cccc(-c3nc(N4CCOCC4)c4oc5ncccc5c4n3)c2)cn1 [YM201636], the “sporadic ALS iMN survival” value (sporadic ALS iMNs) is reported as “rescued C9ORF72 and sporadic ALS”.

With “GGTGCATGCTCGGAGGTCTC (chemistry not given here) [Pikfyve ASO, mouse Pikfyve ASO gapmer for in vivo experiments, 5-10-5 2′-MOE, phosphorothioate]” the “DPR / poly(GR)+ aggregates in hippocampus of C9ORF72-BAC mice” value (from here on “DPR / poly(GR)+ aggregates”) [2] was “significantly reduced; also recorded: significantly less DRP aggregates”, the “DPR / poly(GR)+ aggregates” value ([2]; listed as PIKfyve ASO) was “significantly lowered” and the “DPR / poly(GR)+ aggregates” value ([2]; listed as Pikfyve-suppressing ASO) was “also lowered DPRs”. The “Pikfyve mRNA levels (whole brain qRT-PCR)” value (Pikfyve [3]) was “reduced Pikfyve mRNA levels”, the “Pikfyve mRNA levels (whole brain qRT-PCR)” value (Pikfyve [3]; listed as Pikfyve-targeting ASO) was “significantly decreased Pikfyve expression” and the “Pikfyve expression in hippocampus” value (Pikfyve [4]) was “significantly reduced”. For the same compound, the “Pikfyve expression in hippocampus” value (Pikfyve [4]; listed as PIKfyve ASO) was “significantly lowered”, the “motor deficits in TARDBP mice” value (TARDBP mice; intracerebroventricular injection of Pikfyve ASO) was “rescued motor deficits” and the “survival of TDP-43 mutant mice” value (TDP-43 mutant mice; NC ASO vs Pikfyve ASO) was “rescues”. The “neurodegeneration in TDP-43 mice” value (TDP-43 mutant mice; Nissl+ spinal motor neurons per ventral horn) was “rescues” and the “TDP-43 pathology in TDP-43 mice” value (TDP-43 mutant mice; spinal motor neurons, day 21, NC ASO vs Pikfyve ASO) was “rescues”.
